Test results taken from ChEMBL document CHEMBL3826948, “Alkyl substituted aminal derivatives of HCV NS5A inhibitor MK-8742” (Bioorg Med Chem Lett, 2016).

Tests used:
Settings in all cases: Hepatitis C virus
[1] = Inhibition of NS5A in HCV genotype 3a assessed as replicon RNA levels by real time PCR based cell based assay; set-up: species or system Hepatitis C virus subtype 3a
[2] = Inhibition of NS5A in HCV genotype 1a assessed as replicon RNA levels by real time PCR based cell based assay; set-up: species or system Hepatitis C virus subtype 1a
[3] = Inhibition of NS5A in HCV genotype 2b assessed as replicon RNA levels by real time PCR based cell based assay; set-up: species or system Hepatitis C virus subtype 2b
[4] = Inhibition of NS5A in HCV genotype 1b assessed as replicon RNA levels by real time PCR based cell based assay; set-up: species or system Hepatitis C virus subtype 1b
[5] = Inhibition of NS5A in HCV genotype 4a assessed as replicon RNA levels by real time PCR based cell based assay; set-up: species or system Hepatitis C virus subtype 4a
[6] = Inhibition of NS5A in HCV genotype 2a assessed as replicon RNA levels by real time PCR based cell based assay; set-up: species or system Hepatitis C virus subtype 2a

EC50 [1] [nM] | EC50 [2] [nM] | EC50 [3] [nM] | EC50 [4] [nM] | EC50 [5] [nM] | EC50 [6] [nM] | SMILES
0.2 | 0.001 | 12 | 0.001 | 0.02 | 0.01 | CCCCCCC1Oc2cc(-c3cnc([C@@H]4CCCN4C(=O)[C@@H](NC(=O)OC)C(C)C)[nH]3)ccc2-c2cc3cc(-c4cnc([C@@H]5CCCN5C(=O)[C@@H](NC(=O)OC)C(C)C)[nH]4)ccc3n21 (stereo partly drawn)
0.8 | 0.009 | – | 0.004 | 0.04 | 0.03 | COC(=O)N[C@H](C(=O)N1CCC[C@H]1c1ncc(-c2ccc3c(c2)OC(C2CCOCC2)n2c-3cc3cc(-c4cnc([C@@H]5CCCN5C(=O)[C@@H](NC(=O)OC)C(C)C)[nH]4)ccc32)[nH]1)C(C)C (mixture of isomers)
0.8 | 0.002 | 4 | 0.0008 | 0.07 | 0.007 | COC(=O)N[C@H](C(=O)N1CCC[C@H]1c1ncc(-c2ccc3c(c2)OC(C2CCC(F)(F)CC2)n2c-3cc3cc(-c4cnc([C@@H]5CCCN5C(=O)[C@@H](NC(=O)OC)C(C)C)[nH]4)ccc32)[nH]1)C(C)C (mixture of isomers)
4 | 0.1 | 9 | – | – | – | COC(=O)N[C@H](C(=O)N1CCC[C@H]1c1ncc(-c2cc(F)c3c(c2)OC(C2CC2C(=O)N(C)C)n2c-3cc3cc(-c4cnc([C@@H]5CCCN5C(=O)[C@@H](NC(=O)OC)C(C)C)[nH]4)ccc32)[nH]1)C(C)C (stereo partly drawn)
> 17 | 0.02 | 2 | – | – | – | CCCCCC1CC2CCC1CC2C1Oc2cc(-c3cnc([C@@H]4CCCN4C(=O)[C@@H](NC(=O)OC)C(C)C)[nH]3)ccc2-c2cc3cc(-c4cnc([C@@H]5CCCN5C(=O)[C@@H](NC(=O)OC)C(C)C)[nH]4)ccc3n21 (mixture of isomers)
1 | 0.008 | 9 | 0.005 | 0.06 | 0.006 | COC(=O)N[C@H](C(=O)N1CCC[C@H]1c1ncc(-c2ccc3c(c2)OC(C2CCC2)n2c-3cc3cc(-c4cnc([C@@H]5CCCN5C(=O)[C@@H](NC(=O)OC)C(C)C)[nH]4)ccc32)[nH]1)C(C)C (mixture of isomers)
0.6 | < 0.02 | 2 | 0.02 | < 0.2 | < 0.2 | COC(=O)N[C@H](C(=O)N1CCC[C@H]1c1ncc(-c2ccc3c(c2)OC(C2CCC4(CC2)CC4)n2c-3cc3cc(-c4cnc([C@@H]5CCCN5C(=O)[C@@H](NC(=O)OC)C(C)C)[nH]4)ccc32)[nH]1)C(C)C (stereo partly drawn)
3 | 0.006 | – | 0.002 | 0.04 | 0.09 | COC(=O)N[C@H](C(=O)N1CCC[C@H]1c1ncc(-c2ccc3c(c2)OC(CC2CCCCC2)n2c-3cc3cc(-c4cnc([C@@H]5CCCN5C(=O)[C@@H](NC(=O)OC)C(C)C)[nH]4)ccc32)[nH]1)C(C)C (mixture of isomers)
3 | 0.005 | 59 | 0.002 | 0.04 | 0.004 | COC(=O)N[C@H](C(=O)N1CCC[C@H]1c1ncc(-c2ccc3c(c2)cc2n3C3(CCCC3)Oc3cc(-c4cnc([C@@H]5C[C@@H](F)CN5C(=O)[C@@H](NC(=O)OC)C(C)C)[nH]4)cc(F)c3-2)[nH]1)C(C)C
– | – | – | – | – | 4 | COC(=O)N[C@H](C(=O)N1CCC[C@H]1c1ncc(-c2ccc3c(c2)OC(CC2CCCC2)n2c-3cc3cc(-c4cnc([C@@H]5CCCN5C(=O)[C@@H](NC(=O)OC)C(C)C)[nH]4)ccc32)[nH]1)C(C)C (mixture of isomers)
0.06 | 0.005 | 8 | – | – | – | COC(=O)N[C@H](C(=O)N1CCC[C@H]1c1ncc(-c2cc(F)c3c(c2)OC(C2CC2C#N)n2c-3cc3cc(-c4cnc([C@@H]5CCCN5C(=O)[C@@H](NC(=O)OC)C(C)C)[nH]4)ccc32)[nH]1)C(C)C (stereo partly drawn)
0.7 | 0.009 | 4 | – | – | – | COCC1CC1C1Oc2cc(-c3cnc([C@@H]4CCCN4C(=O)[C@@H](NC(=O)OC)C(C)C)[nH]3)cc(F)c2-c2cc3cc(-c4cnc([C@@H]5CCCN5C(=O)[C@@H](NC(=O)OC)C(C)C)[nH]4)ccc3n21 (stereo partly drawn)
0.8 | 0.002 | 6 | 0.002 | 0.02 | 0.01 | COC(=O)N[C@H](C(=O)N1CCC[C@H]1c1ncc(-c2ccc3c(c2)OC(C(C)C)n2c-3cc3cc(-c4cnc([C@@H]5CCCN5C(=O)[C@@H](NC(=O)OC)C(C)C)[nH]4)ccc32)[nH]1)C(C)C (stereo partly drawn)
– | 0.03 | – | – | – | – | COC(=O)N[C@H](C(=O)N1CCC[C@H]1c1ncc(-c2cc(F)c3c(c2)OC(C2CC2(C)C)n2c-3cc3cc(-c4cnc([C@@H]5CCCN5C(=O)[C@@H](NC(=O)OC)C(C)C)[nH]4)ccc32)[nH]1)C(C)C (stereo partly drawn)
0.09 | 0.006 | 2 | – | – | – | COC(=O)N[C@H](C(=O)N1CCC[C@H]1c1ncc(-c2cc(F)c3c(c2)OC(C2CC2C)n2c-3cc3cc(-c4cnc([C@@H]5CCCN5C(=O)[C@@H](NC(=O)OC)C(C)C)[nH]4)ccc32)[nH]1)C(C)C (stereo partly drawn)
> 17 | 0.006 | > 17 | – | – | – | COC(=O)N[C@H](C(=O)N1CCC[C@H]1c1ncc(-c2cc(F)c3c(c2)OC(C2CC24CCCC4)n2c-3cc3cc(-c4cnc([C@@H]5CCCN5C(=O)[C@@H](NC(=O)OC)C(C)C)[nH]4)ccc32)[nH]1)C(C)C (stereo partly drawn)
33 | 8 | 124 | – | – | – | COC(=O)N[C@H](C(=O)N1CCC[C@H]1c1ncc(-c2ccc3c(c2)OC(CCC(=O)O)n2c-3cc3cc(-c4cnc([C@@H]5CCCN5C(=O)[C@@H](NC(=O)OC)C(C)C)[nH]4)ccc32)[nH]1)C(C)C (mixture of isomers)
6 | 0.008 | 95 | 0.001 | 0.2 | 0.2 | COC(=O)N[C@H](C(=O)N1CCC[C@H]1c1ncc(-c2ccc3c(c2)cc2n3C3(CCCCC3)Oc3cc(-c4cnc([C@@H]5C[C@@H](F)CN5C(=O)[C@@H](NC(=O)OC)C(C)C)[nH]4)cc(F)c3-2)[nH]1)C(C)C
1 | 0.03 | 8 | – | – | – | COC(=O)N[C@H](C(=O)N1CCC[C@H]1c1ncc(-c2ccc3c(c2)OC(CCC#N)n2c-3cc3cc(-c4cnc([C@@H]5CCCN5C(=O)[C@@H](NC(=O)OC)C(C)C)[nH]4)ccc32)[nH]1)C(C)C (mixture of isomers)
0.4 | 0.0008 | 10 | 0.0007 | 0.02 | 0.008 | COC(=O)N[C@H](C(=O)N1CCC[C@H]1c1ncc(-c2ccc3c(c2)OC(CC(C)C)n2c-3cc3cc(-c4cnc([C@@H]5CCCN5C(=O)[C@@H](NC(=O)OC)C(C)C)[nH]4)ccc32)[nH]1)C(C)C (mixture of isomers)
4 | 0.02 | 9 | – | – | – | COC(=O)CCC1Oc2cc(-c3cnc([C@@H]4CCCN4C(=O)[C@@H](NC(=O)OC)C(C)C)[nH]3)ccc2-c2cc3cc(-c4cnc([C@@H]5CCCN5C(=O)[C@@H](NC(=O)OC)C(C)C)[nH]4)ccc3n21 (mixture of isomers)
7 | 0.004 | 73 | 0.002 | 0.02 | 1 | COC(=O)N[C@H](C(=O)N1CCC[C@H]1c1ncc(-c2ccc3c(c2)OC(CC(C)(C)C)n2c-3cc3cc(-c4cnc([C@@H]5CCCN5C(=O)[C@@H](NC(=O)OC)C(C)C)[nH]4)ccc32)[nH]1)C(C)C (stereo partly drawn)
0.3 | 0.003 | 3 | 0.002 | 0.02 | 0.003 | CCCC1Oc2cc(-c3cnc([C@@H]4CCCN4C(=O)[C@@H](NC(=O)OC)C(C)C)[nH]3)ccc2-c2cc3cc(-c4cnc([C@@H]5CCCN5C(=O)[C@@H](NC(=O)OC)C(C)C)[nH]4)ccc3n21 (stereo partly drawn)
202 | 8 | 525 | – | – | – | COC(=O)N[C@H](C(=O)N1CCC[C@H]1c1ncc(-c2cc(F)c3c(c2)OC(C2CC2C(=O)O)n2c-3cc3cc(-c4cnc([C@@H]5CCCN5C(=O)[C@@H](NC(=O)OC)C(C)C)[nH]4)ccc32)[nH]1)C(C)C (stereo partly drawn)
0.6 | 0.002 | 44 | 0.0005 | 0.04 | 0.03 | COC(=O)N[C@H](C(=O)N1CCC[C@H]1c1ncc(-c2ccc3c(c2)cc2n3C3(CCC3)Oc3cc(-c4cnc([C@@H]5C[C@@H](F)CN5C(=O)[C@@H](NC(=O)OC)C(C)C)[nH]4)cc(F)c3-2)[nH]1)C(C)C
0.2 | 0.002 | 4 | 0.002 | 0.005 | 0.007 | CCCCC1Oc2cc(-c3cnc([C@@H]4CCCN4C(=O)[C@@H](NC(=O)OC)C(C)C)[nH]3)ccc2-c2cc3cc(-c4cnc([C@@H]5CCCN5C(=O)[C@@H](NC(=O)OC)C(C)C)[nH]4)ccc3n21 (stereo partly drawn)
– | 0.01 | 9 | 0.01 | – | – | COC(=O)N[C@H](C(=O)N1CCC[C@H]1c1ncc(-c2ccc3c(c2)OC(CC2CC2)n2c-3cc3cc(-c4cnc([C@@H]5CCCN5C(=O)[C@@H](NC(=O)OC)C(C)C)[nH]4)ccc32)[nH]1)C(C)C (mixture of isomers)
10 | 1 | 52 | – | – | – | CNC(=O)C1CC1C1Oc2cc(-c3cnc([C@@H]4CCCN4C(=O)[C@@H](NC(=O)OC)C(C)C)[nH]3)cc(F)c2-c2cc3cc(-c4cnc([C@@H]5CCCN5C(=O)[C@@H](NC(=O)OC)C(C)C)[nH]4)ccc3n21 (stereo partly drawn)
0.03 | 0.005 | 4 | – | – | – | COC(=O)N[C@H](C(=O)N1CCC[C@H]1c1ncc(-c2cc(F)c3c(c2)OC([C@H]2C[C@@H]2c2ccccc2)n2c-3cc3cc(-c4cnc([C@@H]5CCCN5C(=O)[C@@H](NC(=O)OC)C(C)C)[nH]4)ccc32)[nH]1)C(C)C (stereo partly drawn)
